Experiments:
[1] = target: Human immunodeficiency virus type 1 reverse transcriptase (Human immunodeficiency virus 1, UniProt Q72547); assay: Inhibition on HIV1 reverse transcriptase p66/p51
[2] = system: Human immunodeficiency virus 1; assay: Antiviral activity against HIV1 3a infected human MT2 cells assessed as inhibition of viral-induced cytopathic effect after 3 days by XTT assay; type: functional, organism-based; settings: Human immunodeficiency virus 1, 3a, MT2, 72 h
[3] = system: Human immunodeficiency virus 1; assay: Antiviral activity against HIV1 3a with reverse transcriptase K65R mutation in human MT2 cells assessed as inhibition of viral-induced cytopathic effect by XTT assay relative to wild type; type: functional
[4] = system: Human immunodeficiency virus 1; assay: Antiviral activity against HIV1 3a with reverse transcriptase M184V mutation in human MT2 cells assessed as inhibition of viral-induced cytopathic effect by XTT assay relative to wild type; type: functional
[5] = Cytotoxicity against human MT2 cells after 5 days; type: cell-based

Structure (SMILES) | IC50 [1] [µM] | EC50 [2] [µM] | fold change (FC) [3] | fold change (FC) [4] | CC50 at 120 h [5] [µM]
Nc1nc(NC2CC2)c2ncn([C@H]3C=C[C@@H](CO)C3)c2n1 [ABACAVIR] | 0.13 | 0.32 | 3.8 | 7.1 | 
Nc1ncnc2c1ncn2[C@H]1C=C[C@@H](OCP(=O)(O)O)C1 |  | 52 |  |  | 
Nc1ncnc2c1ncn2[C@@H]1O[C@H](OCP(=O)(O)O)C=C1F [GS-9148] |  |  | 1.1 | 0.8 | > 1000
C#C[C@@]1(OCP(=O)(O)O)C=C[C@H](n2cnc3c(N)ncnc32)C1 | 0.13 | 16 | 2.2 | >30 | 1450
C[C@@]1(OCP(=O)(O)O)C=C[C@H](n2cnc3c(N)ncnc32)C1 |  | 244 |  |  | 
Cc1cn([C@H]2C[C@H](N=[N+]=[N-])[C@@H](CO)O2)c(=O)[nH]c1=O [ZIDOVUDINE] |  |  | 1.2 | 0.7 | > 200
C[C@H](Cn1cnc2c(N)ncnc21)OCP(=O)(O)O [TENOFOVIR ANHYDROUS] |  |  | 4.3 | 0.7 | > 1000
C=C[C@@]1(OCP(=O)(O)OP(=O)(O)OP(=O)(O)O)C=C[C@H](n2cnc3c(N)ncnc32)C1 | 0.62 |  |  |  | 
Nc1ncnc2c1ncn2[C@H]1C=C[C@@H](OCP(=O)(O)O)O1 |  |  | 2.9 | 2.9 | > 1000
